Source: US10787446B2 (GENENTECH, INC., priority 2015, dated 2020)

The compounds below were run against T1, hNav1.7 and the β1 subunit (Homo sapiens, UniProt Q15858) (assay: Tritiated compound competitive binding to membranes from cells heterologously expressing hNav1.7 and the β1 subunit (LBA)). Conditions: competition with 100 pM [3H]compound, 18 h, room temperature; IC50 by 4 parameter logistic model.
T1 construct: expressed in transfected cells
How it was run: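 Membranes were incubated 18 h at room temperature with 100 pM [3H]-labelled NaV1.7 inhibitor and increasing test compound in 100 mM NaCl, 20 mM Tris HCl, pH 7.4. Bound radioligand was filtered on PEI-soaked GF/C, washed, and counted by scintillation. IC50 from a 4-parameter logistic fit of % inhibition.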

T1 sequence (Q15858 whole entry): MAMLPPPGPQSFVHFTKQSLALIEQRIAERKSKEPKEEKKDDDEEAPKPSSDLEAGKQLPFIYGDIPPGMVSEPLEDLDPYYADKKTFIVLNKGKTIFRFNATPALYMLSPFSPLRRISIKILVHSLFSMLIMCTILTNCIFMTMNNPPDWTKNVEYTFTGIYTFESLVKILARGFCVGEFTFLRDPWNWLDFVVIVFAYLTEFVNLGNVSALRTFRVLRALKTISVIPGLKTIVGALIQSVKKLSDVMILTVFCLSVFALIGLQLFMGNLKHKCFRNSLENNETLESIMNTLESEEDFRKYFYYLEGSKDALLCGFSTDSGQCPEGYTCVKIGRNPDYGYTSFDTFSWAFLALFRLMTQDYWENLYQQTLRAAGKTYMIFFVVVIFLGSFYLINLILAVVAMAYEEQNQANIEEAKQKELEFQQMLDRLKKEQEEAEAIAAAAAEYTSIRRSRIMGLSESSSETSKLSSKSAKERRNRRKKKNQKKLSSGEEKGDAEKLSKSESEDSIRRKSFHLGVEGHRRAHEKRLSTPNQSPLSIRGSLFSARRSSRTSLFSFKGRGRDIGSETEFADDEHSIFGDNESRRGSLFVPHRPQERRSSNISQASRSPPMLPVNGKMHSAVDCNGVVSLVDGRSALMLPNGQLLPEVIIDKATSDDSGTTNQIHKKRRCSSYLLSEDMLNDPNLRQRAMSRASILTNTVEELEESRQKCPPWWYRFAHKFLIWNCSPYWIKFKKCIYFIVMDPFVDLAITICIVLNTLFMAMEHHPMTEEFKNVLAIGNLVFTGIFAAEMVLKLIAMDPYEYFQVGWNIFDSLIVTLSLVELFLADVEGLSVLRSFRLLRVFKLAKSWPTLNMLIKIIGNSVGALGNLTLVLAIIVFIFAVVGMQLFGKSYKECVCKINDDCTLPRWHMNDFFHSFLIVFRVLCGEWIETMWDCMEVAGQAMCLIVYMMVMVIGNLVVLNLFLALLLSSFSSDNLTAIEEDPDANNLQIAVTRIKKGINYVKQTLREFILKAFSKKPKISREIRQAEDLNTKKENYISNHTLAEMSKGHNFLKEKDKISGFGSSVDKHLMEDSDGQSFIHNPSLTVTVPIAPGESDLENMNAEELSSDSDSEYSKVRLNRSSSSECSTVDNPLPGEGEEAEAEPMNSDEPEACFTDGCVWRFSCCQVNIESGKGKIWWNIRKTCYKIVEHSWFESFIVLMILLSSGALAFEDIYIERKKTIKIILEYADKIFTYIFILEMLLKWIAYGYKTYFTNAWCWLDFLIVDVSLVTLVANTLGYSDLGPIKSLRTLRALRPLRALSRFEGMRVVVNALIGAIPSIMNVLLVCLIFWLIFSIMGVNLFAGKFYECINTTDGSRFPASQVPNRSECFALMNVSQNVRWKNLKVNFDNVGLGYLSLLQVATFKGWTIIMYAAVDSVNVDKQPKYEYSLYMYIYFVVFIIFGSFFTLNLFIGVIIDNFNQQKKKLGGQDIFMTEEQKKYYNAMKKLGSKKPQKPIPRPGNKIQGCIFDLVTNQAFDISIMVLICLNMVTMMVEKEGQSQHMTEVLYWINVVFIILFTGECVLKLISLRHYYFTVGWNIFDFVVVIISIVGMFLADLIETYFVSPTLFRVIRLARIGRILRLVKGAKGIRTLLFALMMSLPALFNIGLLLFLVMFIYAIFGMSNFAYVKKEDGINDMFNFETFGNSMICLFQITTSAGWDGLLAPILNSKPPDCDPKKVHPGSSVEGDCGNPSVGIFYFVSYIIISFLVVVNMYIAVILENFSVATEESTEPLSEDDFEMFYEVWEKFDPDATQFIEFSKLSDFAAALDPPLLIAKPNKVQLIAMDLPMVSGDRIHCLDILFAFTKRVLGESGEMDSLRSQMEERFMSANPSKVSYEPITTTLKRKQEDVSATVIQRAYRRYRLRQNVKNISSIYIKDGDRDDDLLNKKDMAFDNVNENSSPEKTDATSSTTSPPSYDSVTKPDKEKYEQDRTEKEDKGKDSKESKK
T1 sequence (Q07699 19-218 partner): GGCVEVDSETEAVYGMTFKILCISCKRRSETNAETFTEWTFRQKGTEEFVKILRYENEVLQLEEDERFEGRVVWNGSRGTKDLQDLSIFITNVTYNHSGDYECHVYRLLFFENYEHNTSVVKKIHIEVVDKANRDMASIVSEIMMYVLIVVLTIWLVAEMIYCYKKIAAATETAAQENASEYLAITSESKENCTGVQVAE

Nav1.7 (LBA) [µM] | Compound
0.158 | N#C[C@H]1CCN([C@@H]2CCOc3cc(S(=O)(=O)Nc4ncns4)ccc32)[C@@H](c2ccc(F)cc2)C1 [Example 180, (R)-4-((2R,4S)-4-cyano-2-(4-fluorophenyl)piperidin-1-yl)-N-(1,2,4-thiadiazol-5-yl)chroman-7-sulfonamide]
0.00652 | O=S(=O)(Nc1ncns1)c1ccc2c(c1)OCC[C@@H]2N1CC[C@H](CF)C[C@@H]1c1ccc(F)cc1 [Example 183, (S)-4-((2R,4S)-4-(fluoromethyl)-2-(4-fluorophenyl)piperidin-1-yl)-N-(1,2,4-thiadiazol-5-yl)chroman-7-sulfonamide]
0.132 | O=S(=O)(Nc1ncns1)c1ccc2c(c1)OCC[C@H]2N1CC[C@H](CF)C[C@@H]1c1ccc(F)cc1 [Example 184, (R)-4-((2R,4S)-4-(fluoromethyl)-2-(4-fluorophenyl)piperidin-1-yl)-N-(1,2,4-thiadiazol-5-yl)chroman-7-sulfonamide]
2.18 | O=S(=O)(Nc1ncns1)c1ccc2c(c1)OCC[C@H]2N1CC[C@@H](C(F)F)C[C@H]1c1ccc(F)cc1 [Example 185, (R)-4-((2S,4R)-4-(difluoromethyl)-2-(4-fluorophenyl)piperidin-1-yl)-N-(1,2,4-thiadiazol-5-yl)chroman-7-sulfonamide]
0.00255 | O=S(=O)(Nc1ncns1)c1ccc2c(c1)OCC[C@@H]2N1CC[C@H](C(F)F)C[C@@H]1c1ccc(F)cc1 [Example 187, (S)-4-((2R,4S)-4-(difluoromethyl)-2-(4-fluorophenyl)piperidin-1-yl)-N-(1,2,4-thiadiazol-5-yl)chroman-7-sulfonamide]
0.131 | O=S(=O)(Nc1ncns1)c1ccc2c(c1)OCC[C@H]2N1CC[C@H](C(F)F)C[C@@H]1c1ccc(F)cc1 [Example 188, (R)-4-((2R,4S)-4-(difluoromethyl)-2-(4-fluorophenyl)piperidin-1-yl)-N-(1,2,4-thiadiazol-5-yl)chroman-7-sulfonamide]
0.0448 | O=S(=O)(Nc1nccs1)c1cc2c(cc1F)[C@H](N1CC[C@@H](C(F)(F)F)C[C@H]1c1ccccn1)CCO2 [Example 190, (R)-6-fluoro-4-((2S,4R)-2-(pyridin-2-yl)-4-(trifluoromethyl)piperidin-1-yl)-N-(thiazol-2-yl)chroman-7-sulfonamide]

Continued, compound first:

Compound | Nav1.7 (LBA) [µM]
N#C[C@@H]1CCN([C@@H]2CCOc3cc(S(=O)(=O)Nc4ncns4)ccc32)[C@H](c2ccc(F)cc2)C1 [Example 178, (R)-4-((2S,4R)-4-cyano-2-(4-fluorophenyl)piperidin-1-yl)-N-(1,2,4-thiadiazol-5-yl)chroman-7-sulfonamide] | 1.02
N#C[C@H]1CCN([C@H]2CCOc3cc(S(=O)(=O)Nc4ncns4)ccc32)[C@@H](c2ccc(F)cc2)C1 [Example 179, (S)-4-((2R,4S)-4-cyano-2-(4-fluorophenyl)piperidin-1-yl)-N-(1,2,4-thiadiazol-5-yl)chroman-7-sulfonamide] | 0.0109
O=S(=O)(Nc1ncns1)c1ccc2c(c1)OCC[C@H]2N1CC[C@@H](CF)C[C@H]1c1ccc(F)cc1 [Example 181, (R)-4-((2S,4R)-4-(fluoromethyl)-2-(4-fluorophenyl)piperidin-1-yl)-N-(1,2,4-thiadiazol-5-yl)chroman-7-sulfonamide] | 0.735
O=S(=O)(Nc1ncns1)c1ccc2c(c1)OCC[C@@H]2N1CC[C@@H](CF)C[C@H]1c1ccc(F)cc1 [Example 182, (S)-4-((2S,4R)-4-(fluoromethyl)-2-(4-fluorophenyl)piperidin-1-yl)-N-(1,2,4-thiadiazol-5-yl)chroman-7-sulfonamide] | 0.00399
O=S(=O)(Nc1ncns1)c1ccc2c(c1)OCC[C@@H]2N1CC[C@@H](C(F)F)C[C@H]1c1ccc(F)cc1 [Example 186, (S)-4-((2S,4R)-4-(difluoromethyl)-2-(4-fluorophenyl)piperidin-1-yl)-N-(1,2,4-thiadiazol-5-yl)chroman-7-sulfonamide] | 0.00214
